“And” between values parts separate entries of the source, which are not always exact repeats. Identical values can stand only once. Toxic doses and inconclusive results are not listed. No stated cut-off is given here; in the data, active means T/C of 150% or more; inactive means T/C below 125%.
Test system: L1210 leukemia ip in BDF1 mice, survival T/C
Test: NCI In Vivo Anticancer Drug Screen. Data for tumor model L1210 Leukemia (intraperitoneal) in B6D2F1 (BDF1) mice
Details: endpoint: mean survival time, higher = longer survival
Method in brief: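 In this screen, tumor-bearing mice given compound are compared to those given vehicle, and their survival values are reported as a treated-to-control quotient.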

[1] = dose: 100.0 mg/kg/injection, schedule: Q04DX003 (ip), vehicle: Klucel (hydroxypropylcellulose) (HPC)
[2] = dose: 200.0 mg/kg/injection, schedule: Q04DX003 (ip), vehicle: Klucel (hydroxypropylcellulose) (HPC)
[3] = dose: 50.0 mg/kg/injection, schedule: Q01DX009 (ip), vehicle: saline with Tween-80
[4] = dose: 100.0 mg/kg/injection, schedule: Q01DX009 (ip), vehicle: saline with Tween-80
[5] = dose: 100.0 mg/kg/injection, schedule: Q01DX009 (ip), vehicle: Klucel (hydroxypropylcellulose) (HPC)
[6] = dose: 200.0 mg/kg/injection, schedule: Q01DX009 (ip), vehicle: Klucel (hydroxypropylcellulose) (HPC)
[7] = dose: 400.0 mg/kg/injection, schedule: Q01DX009 (ip), vehicle: Klucel (hydroxypropylcellulose) (HPC)

Measured: T/C

CC(C)=CCNc1ncnc2c1ncn2C1OC(CO)C(O)C1O (configuration not stated)
inactive: dose: 50.0 mg/kg/injection, schedule: Q01DX001 (ip), vehicle: saline 98 % of control | dose: 50.0 mg/kg/injection, schedule: Q01DX009 (ip), vehicle: saline 118 % of control | dose: 50.0 mg/kg/injection, schedule: Q01DX015 (ip), vehicle: saline 108 % of control | dose: 100.0 mg/kg/injection, schedule: Q01DX001 (ip), vehicle: saline 93 % of control | dose: 100.0 mg/kg/injection, schedule: Q01DX009 (ip), vehicle: saline 110 % of control | [1] 93 % of control | dose: 100.0 mg/kg/injection, schedule: Q04DX003 (ip), vehicle: saline with Tween-80 96 % of control | dose: 150.0 mg/kg/injection, schedule: Q01DX015 (ip), vehicle: saline 113 % of control | dose: 200.0 mg/kg/injection, schedule: Q01DX001 (ip), vehicle: saline 96 % of control | [2] 104 % of control | dose: 200.0 mg/kg/injection, schedule: Q04DX003 (ip), vehicle: saline with Tween-80 102 % of control

OC1c2ccccc2-c2ccc(Cl)cc21 (configuration not stated)
inactive: dose: 25.0 mg/kg/injection, schedule: Q01DX009 (ip), vehicle: saline with Tween-80 97 % of control | [3] 106 % of control | [4] 100 % of control and 90 % of control

Nc1ccc(S(=O)(=O)Nc2ccc(I)cc2)cc1
inactive: [5] 100 % of control | [1] 100 % of control | [6] 96 % of control | [2] 97 % of control | [7] 93 % of control | dose: 400.0 mg/kg/injection, schedule: Q04DX003 (ip), vehicle: Klucel (hydroxypropylcellulose) (HPC) 92 % of control

CC(=O)Nc1c(I)c(NC(C)=O)c(I)c(C(=O)O)c1I
inactive: [3] 105 % of control | [4] 99 % of control | dose: 200.0 mg/kg/injection, schedule: Q01DX009 (ip), vehicle: saline with Tween-80 108 % of control

CCC(=O)N/N=C/C=N/NC(=O)c1ccncc1
inactive: dose: 75.0 mg/kg/injection, schedule: Q01DX001 (ip), vehicle: saline 96 % of control | dose: 100.0 mg/kg/injection, schedule: Q01DX001 (ip), vehicle: Klucel (hydroxypropylcellulose) (HPC) 97 % of control | [5] 93 % of control | dose: 150.0 mg/kg/injection, schedule: Q01DX001 (ip), vehicle: saline 99 % of control | dose: 200.0 mg/kg/injection, schedule: Q01DX001 (ip), vehicle: Klucel (hydroxypropylcellulose) (HPC) 101 % of control | [6] 100 % of control | dose: 300.0 mg/kg/injection, schedule: Q01DX001 (ip), vehicle: saline 92 % of control | dose: 400.0 mg/kg/injection, schedule: Q01DX001 (ip), vehicle: Klucel (hydroxypropylcellulose) (HPC) 94 % of control

N#Cc1ccccc1OCCCCCCCCCCOc1ccccc1C#N
inactive: dose: 75.0 mg/kg/injection, schedule: Q01DX009 (ip), vehicle: Klucel (hydroxypropylcellulose) (HPC) 99 % of control | dose: 150.0 mg/kg/injection, schedule: Q01DX009 (ip), vehicle: Klucel (hydroxypropylcellulose) (HPC) 92 % of control | dose: 300.0 mg/kg/injection, schedule: Q01DX009 (ip), vehicle: Klucel (hydroxypropylcellulose) (HPC) 90 % of control

CCCCCC(C[N+](C)(C)C)C(O)/C=C\c1ccccc1 (configuration not stated)
inactive: dose: 2.5 mg/kg/injection, schedule: Q01DX009 (ip), vehicle: saline 97 % of control | dose: 5.0 mg/kg/injection, schedule: Q01DX009 (ip), vehicle: saline 97 % of control | dose: 5.0 mg/kg/injection, schedule: Q04DX003 (ip), vehicle: saline 103 % of control | dose: 10.0 mg/kg/injection, schedule: Q01DX009 (ip), vehicle: saline 99 % of control | dose: 10.0 mg/kg/injection, schedule: Q04DX003 (ip), vehicle: saline 98 % of control

CC(=O)N(c1ccccc1)c1nc(/C=N\NC(N)=S)cs1
inactive: [5] 105 % of control | [6] 106 % of control | [7] 100 % of control

From PubChem BioAssay AID248 (DTP/NCI, 2004)
